Measured values from ChEMBL document CHEMBL5634155, “Design and synthesis of pyrazole derivatives against neutrophilic inflammation” (Eur J Med Chem, 2023).
Active and inactive are the calls of the source. The calls are words filed in the database; no cut-off is given here.

What was measured:
Neutrophil [1] = test: Inhibition of fMLF/CB-induced human Neutrophil activation assessed as reduction in superoxide anion generation preincubated with compound for 2 mins prior to CB induction for 3 mins followed by fMLF addition by spectrophotometric analysis; format: functional, cell-based
Neutrophil [2] = test: Inhibition of fMLF/CB-induced human Neutrophil activation assessed as reduction in elastase release using MeO-Suc-Ala-Ala-Pro-Val-pnitroanilide as substrate incubated for 5 mins; format: functional, cell-based
Neutrophil [3] = test: Inhibition of fMLF/CB-induced human Neutrophil activation assessed as reduction in elastase release at 10 uM using MeO-Suc-Ala-Ala-Pro-Val-pnitroanilide as substrate incubated for 5 mins relative to control; format: functional
Neutrophil [4] = test: Inhibition of fMLF/CB-induced human Neutrophil activation assessed as reduction in superoxide anion generation at 10 uM preincubated with compound for 2 mins prior to CB induction for 3 mins followed by fMLF addition by spectrophotometric analysis relative to control; format: functional; conditions: 5 min
[5] = Apparent volume of distribution in C57BL/6 mouse at 5 mg/kg, iv measured upto 360 mins by HPLC analysis; format: ADME, organism-based; conditions: in vivo, 6 h
[6] = AUC (0 to infinity) in C57BL/6 mouse at 5 mg/kg, iv measured upto 360 mins by HPLC analysis; format: ADME, organism-based; conditions: in vivo
[7] = Half life in C57BL/6 mouse at 5 mg/kg, iv measured upto 360 mins by HPLC analysis; format: ADME, organism-based; conditions: in vivo
[8] = Clearance in C57BL/6 mouse at 5 mg/kg, iv measured upto 360 mins by HPLC analysis; format: ADME, organism-based; conditions: in vivo
Neutrophil [9] = test: Inhibition of fMLF/CB-induced human Neutrophil activation assessed as reduction in superoxide anion generation at 1 to 1000 nM preincubated with compound for 2 mins prior to CB induction for 3 mins followed by fMLF addition in presence of KT5720 by spectrophotometric analysis; format: functional, cell-based; conditions: dose 1-1000 nM, time 5.0 min

| Structure (SMILES) | IC50 (Neutrophil [1]) [µM] | IC50 (Neutrophil [2]) [µM] | inhibition at 10 µM (Neutrophil [3]) [%] | inhibition at 10 µM (Neutrophil [4]) [%] | Vz [5] [mL] | AUC(0-inf) [6] [ng·h/mL] | half-life [7] [h] | clearance [8] [mL/min] | inhibition (Neutrophil [9]) |
| --- | --- | --- | --- | --- | --- | --- | --- | --- | --- |
| c1ccc(-c2cc(-c3ccccc3)n(CC3CCCCC3)n2)cc1 | > 10 | > 10 | 8.16 | 40.8 |  |  |  |  |  |
| c1ccc(Cn2cc(-c3ccccc3)c(-c3ccccc3)n2)cc1 | 201 | > 10 | 6.79 | 61.6 |  |  |  |  |  |
| CCCCCCCn1nc(-c2ccc(C(=O)O)o2)c2ccccc21 | 2.03 | 1.92 | 112 | 98.7 |  |  |  |  |  |
| O=Cc1ccc(-c2nn(CC3CCCCC3)c3ccccc23)o1 | 0.17 | 1.18 | 102 | 63.4 |  |  |  |  |  |
| c1ccc(-c2cc(-c3cccs3)nn2CC2CCCCC2)cc1 | > 10 | > 10 | 15.2 | 39 |  |  |  |  |  |
| Fc1ccccc1Cn1nc(-c2cccs2)cc1-c1ccccc1 | 0.0133 | > 10 | 38.2 | 72.2 | 165 | 900 | 1.03 | 1.85 | Active |
| CCCCCCCn1nc(-c2ccco2)cc1-c1ccccc1 | 0.694 | 2.13 | 115 | 101 |  |  |  |  |  |
| O=C(O)c1ccc(-c2nn(CC3CCCCC3)c3ccccc23)o1 | 4.93 | > 10 | 43.6 | 73.2 |  |  |  |  |  |
| Fc1cccc(Cn2cc(-c3ccccc3)c(-c3ccco3)n2)c1 |  | 2.05 | 100 | 90.2 |  |  |  |  |  |
| CCCCCCCn1nc(-c2ccccc2)cc1-c1ccccc1 | > 10 | > 10 | 1.6 | 4.58 |  |  |  |  |  |
| Fc1cccc(Cn2nc(-c3ccccc3)cc2-c2ccccc2)c1 | > 10 | > 10 | 17.6 | 48.3 |  |  |  |  |  |
| COc1cccc(Cn2nc(-c3cccs3)cc2-c2ccccc2)c1 | 1.76 | > 10 | 32.8 | 63.3 |  |  |  |  |  |
| c1coc(-c2nn(CC3CCCCC3)c3ccccc23)c1 | 0.18 | 0.26 | 73.9 | 87.8 |  |  |  |  |  |
| c1ccc(Cn2nc(-c3ccco3)c3ccccc32)cc1 | 2.32 | > 10 | 20.4 | 71.8 |  |  |  |  |  |
| CCCCCCCn1nc(-c2cccs2)cc1-c1ccccc1 | > 10 | > 10 | 21.1 | 16.6 |  |  |  |  |  |
| CCCCCCCn1cc(-c2ccccc2)c(-c2ccccc2)n1 | > 10 | > 10 | 16.9 | 0.72 |  |  |  |  |  |
| COc1ccc(-c2nn(CC3CCCCC3)cc2-c2ccccc2)cc1OC | > 10 | > 10 | 19.1 | 43.9 |  |  |  |  |  |
| O=Cc1ccc(-c2nn(Cc3ccccc3)c3ccccc23)o1 | 1 | 3.68 | 89.7 | 75.2 |  |  |  |  |  |
| Fc1ccccc1Cn1nc(-c2ccco2)c2ccccc21 | 1.05 | 2.11 | 94.5 | 100 |  |  |  |  |  |
| COc1ccc(-c2nn(Cc3cccc(F)c3)cc2-c2ccccc2)cc1OC | > 10 | > 10 | 16 | 33.7 |  |  |  |  |  |
| O=C(O)c1ccc(-c2nn(Cc3ccccc3)c3ccccc23)o1 | > 10 | > 10 | 16.8 | 43.4 |  |  |  |  |  |
| c1ccc(-c2cn(CC3CCCCC3)nc2-c2ccco2)cc1 | 833 | 1.19 | 109 | 104 |  |  |  |  |  |
| O=Cc1ccc(-c2nn(Cc3ccccc3Br)c3ccccc23)o1 | 0.19 | 2.27 | 106 | 67.4 |  |  |  |  |  |
| Brc1ccccc1Cn1nc(-c2ccco2)c2ccccc21 | 1.47 | 4.84 | 78 | 93.1 |  |  |  |  |  |
| O=Cc1ccc(-c2nn(Cc3ccccc3F)c3ccccc23)o1 | 0.71 | 5.27 | 84.7 | 78.2 |  |  |  |  |  |
| Fc1cccc(Cn2nc(-c3ccco3)cc2-c2ccccc2)c1 | 0.0459 | 3.57 | 76.6 | 94.6 |  |  |  |  |  |
| c1ccc(Cn2cc(-c3ccccc3)c(-c3ccco3)n2)cc1 |  | > 10 | 101 | 94.2 |  |  |  |  |  |
